# Experimental data taken from patent US20080009418A1, “Selective Inhibitors” (Alchemia LTD., priority 2004, published 2008).
# Legend:
# Human δ-opioid (DOP) = target: T1, Human δ-opioid (DOP) (Homo sapiens, UniProt P41143); test: Radioligand binding, human δ-opioid (DOP) membranes, FlashPlate, [3H]-Bremazocine; conditions: compound at 10 μM; [3H]-Bremazocine
# T1 construct: purchased Perkin Elmer Biosignal
# Outline: (§1)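 Cloned human receptor membranes were coated onto FlashPlate wells and incubated with radioligand and compound (added from a 0.5 mM DMSO daughter plate) for 1 hour at room temperature in the dark. Scintillation counting gave percent inhibition, with DMSO defining total and reference ligand defining non-specific binding.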
# Human neurokinin (NK1) = target: T2, Human neurokinin (NK1) (Homo sapiens, UniProt P25103); test: Radioligand binding, human neurokinin NK1 membranes, filtration, [125I]-Substance P; conditions: compound at 10 μM; [125I]-Substance P
# T2 construct: purchased Perkin Elmer Biosignal
# T2 sequence (P25103 whole entry): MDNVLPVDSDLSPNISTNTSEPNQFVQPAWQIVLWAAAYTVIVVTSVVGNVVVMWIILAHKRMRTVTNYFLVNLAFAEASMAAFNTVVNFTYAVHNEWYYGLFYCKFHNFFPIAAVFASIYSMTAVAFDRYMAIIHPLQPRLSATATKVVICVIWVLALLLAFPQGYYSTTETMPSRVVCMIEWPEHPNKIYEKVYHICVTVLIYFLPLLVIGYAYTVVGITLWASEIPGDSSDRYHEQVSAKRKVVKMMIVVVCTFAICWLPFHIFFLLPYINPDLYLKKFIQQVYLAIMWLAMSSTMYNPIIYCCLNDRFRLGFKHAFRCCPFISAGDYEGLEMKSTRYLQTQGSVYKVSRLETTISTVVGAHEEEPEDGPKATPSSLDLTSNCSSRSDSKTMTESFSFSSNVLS
# Outline: (§2)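 Membranes from cloned human receptors were incubated with compound and radioligand for 1 hour at room temperature. Bound ligand was collected on 0.3% PEI-soaked filters, washed with cold 50 mM Tris-HCl pH 7.4, and counted by scintillation. Percent inhibition was computed against DMSO totals and reference-ligand nonspecific wells.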
# Human μ-opioid (MOP) = target: T3, Human μ-opioid (MOP) (Homo sapiens, UniProt P35372); test: Radioligand binding, human μ-opioid (MOP) membranes, FlashPlate, [3H]-Naloxone; conditions: compound at 10 μM; [3H]-Naloxone
# T3 construct: purchased Perkin Elmer Biosignal
# T3 sequence (P35372 whole entry): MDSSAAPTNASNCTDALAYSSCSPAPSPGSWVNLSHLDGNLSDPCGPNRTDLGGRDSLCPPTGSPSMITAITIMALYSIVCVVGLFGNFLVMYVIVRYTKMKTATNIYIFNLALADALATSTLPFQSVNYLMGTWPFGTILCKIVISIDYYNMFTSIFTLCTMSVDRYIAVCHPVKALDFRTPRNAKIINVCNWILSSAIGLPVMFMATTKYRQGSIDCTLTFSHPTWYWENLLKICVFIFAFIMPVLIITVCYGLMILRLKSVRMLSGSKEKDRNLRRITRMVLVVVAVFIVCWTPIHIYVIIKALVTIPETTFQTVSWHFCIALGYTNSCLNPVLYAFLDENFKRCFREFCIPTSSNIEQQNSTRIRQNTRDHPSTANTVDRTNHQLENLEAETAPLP
# Outline: as §1
# Human Melanocortin (MC4) = target: T4, Human Melanocortin (MC4) (Homo sapiens, UniProt P32245); test: Radioligand binding, human melanocortin MC4 membranes, FlashPlate, [125I]-NDP-αMSH; conditions: compound at 10 μM; [125I]-NDP-αMSH
# T4 construct: purchased Perkin Elmer Biosignal
# T4 sequence (P32245 whole entry): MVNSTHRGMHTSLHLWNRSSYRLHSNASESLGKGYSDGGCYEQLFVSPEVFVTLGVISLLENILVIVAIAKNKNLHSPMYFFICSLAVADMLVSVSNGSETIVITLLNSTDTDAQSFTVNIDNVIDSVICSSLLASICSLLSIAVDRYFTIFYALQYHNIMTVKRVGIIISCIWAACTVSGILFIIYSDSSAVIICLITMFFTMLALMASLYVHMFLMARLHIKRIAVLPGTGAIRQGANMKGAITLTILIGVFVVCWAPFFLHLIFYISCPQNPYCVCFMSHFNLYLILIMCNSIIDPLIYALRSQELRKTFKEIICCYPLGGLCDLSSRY
# Outline: as §1
# [1] = target: T5, Human neuropeptide Y (NPY-Y1) (Homo sapiens, UniProt P25929); test: Radioligand binding, human neuropeptide Y NPY-Y1 membranes, FlashPlate, [125I]-PYY; conditions: compound at 10 μM; [125I]-PYY
# T5 construct: purchased Perkin Elmer Biosignal
# T5 sequence (P25929 1-384): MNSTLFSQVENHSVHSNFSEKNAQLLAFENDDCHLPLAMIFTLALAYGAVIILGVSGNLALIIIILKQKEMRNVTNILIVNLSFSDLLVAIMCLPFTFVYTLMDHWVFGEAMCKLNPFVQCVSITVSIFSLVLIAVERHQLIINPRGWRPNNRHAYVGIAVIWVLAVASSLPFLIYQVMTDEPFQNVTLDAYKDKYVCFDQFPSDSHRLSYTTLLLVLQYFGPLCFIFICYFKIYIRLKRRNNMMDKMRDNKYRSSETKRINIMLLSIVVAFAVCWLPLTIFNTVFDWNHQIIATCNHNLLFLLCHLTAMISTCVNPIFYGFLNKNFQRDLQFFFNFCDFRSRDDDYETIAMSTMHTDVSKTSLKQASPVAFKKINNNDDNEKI
# Outline: as §1
# Human opioid (ORL1) = target: T6, Human opioid (ORL1) (Homo sapiens, UniProt P41146); test: Radioligand binding, human opioid ORL1 membranes, FlashPlate, [125I]-Nociceptin; conditions: compound at 10 μM; [125I]-Nociceptin
# T6 construct: purchased Perkin Elmer Biosignal
# T6 sequence (P41146 whole entry): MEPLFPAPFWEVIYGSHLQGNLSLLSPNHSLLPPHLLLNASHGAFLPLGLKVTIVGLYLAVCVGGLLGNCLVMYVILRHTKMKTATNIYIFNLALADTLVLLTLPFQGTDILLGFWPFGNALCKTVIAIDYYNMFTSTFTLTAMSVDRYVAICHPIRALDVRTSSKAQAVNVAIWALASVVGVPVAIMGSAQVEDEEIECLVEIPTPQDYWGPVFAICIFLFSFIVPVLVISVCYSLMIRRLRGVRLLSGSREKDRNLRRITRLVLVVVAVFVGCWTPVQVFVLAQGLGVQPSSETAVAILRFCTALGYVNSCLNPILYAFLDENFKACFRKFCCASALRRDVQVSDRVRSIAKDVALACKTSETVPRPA
# Outline: as §1
# Human κ-Opioid (KOP) = target: T7, Human κ-Opioid (KOP) (Homo sapiens, UniProt P41145); test: Radioligand binding, human κ-opioid (KOP) membranes, filtration, [3H]-Diprenorphine; conditions: compound at 10 μM; [3H]-Diprenorphine
# T7 construct: purchased Perkin Elmer Biosignal
# T7 sequence (P41145 whole entry): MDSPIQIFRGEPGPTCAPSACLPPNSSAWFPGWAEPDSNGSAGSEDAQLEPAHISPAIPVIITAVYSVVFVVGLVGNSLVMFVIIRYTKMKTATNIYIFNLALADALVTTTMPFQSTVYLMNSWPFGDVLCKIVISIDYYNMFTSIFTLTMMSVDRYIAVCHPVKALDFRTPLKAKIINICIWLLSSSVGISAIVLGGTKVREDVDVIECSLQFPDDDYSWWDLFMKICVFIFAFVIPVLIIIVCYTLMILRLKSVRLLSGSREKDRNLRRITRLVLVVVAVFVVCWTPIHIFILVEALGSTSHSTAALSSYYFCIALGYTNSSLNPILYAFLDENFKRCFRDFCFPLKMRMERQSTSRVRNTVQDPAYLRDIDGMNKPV
# Outline: as §2
# Human Melanocortin (MC3) = target: T8, Human Melanocortin (MC3) (Homo sapiens, UniProt P41968); test: Radioligand binding, human melanocortin MC3 membranes, FlashPlate, [125I]-NDP-αMSH; conditions: compound at 10 μM; [125I]-NDP-αMSH
# T8 construct: purchased Perkin Elmer Biosignal
# T8 sequence (P41968 whole entry): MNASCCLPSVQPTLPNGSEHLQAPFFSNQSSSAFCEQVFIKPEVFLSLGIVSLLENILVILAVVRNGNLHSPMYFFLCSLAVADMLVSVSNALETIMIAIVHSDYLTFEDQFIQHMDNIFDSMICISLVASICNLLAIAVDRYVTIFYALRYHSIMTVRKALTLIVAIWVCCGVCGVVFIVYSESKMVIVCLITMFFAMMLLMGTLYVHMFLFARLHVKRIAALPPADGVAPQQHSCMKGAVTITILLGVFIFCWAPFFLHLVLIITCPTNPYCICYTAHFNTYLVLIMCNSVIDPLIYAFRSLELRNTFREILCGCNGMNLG
# Outline: as §1
# Human melanocortin (MC5) = target: T9, Human melanocortin (MC5) (Homo sapiens, UniProt P33032); test: Radioligand binding, human melanocortin MC5 membranes, FlashPlate, [125I]-NDP-αMSH; conditions: compound at 10 μM; [125I]-NDP-αMSH
# T9 construct: purchased Perkin Elmer Biosignal
# T9 sequence (P33032 whole entry): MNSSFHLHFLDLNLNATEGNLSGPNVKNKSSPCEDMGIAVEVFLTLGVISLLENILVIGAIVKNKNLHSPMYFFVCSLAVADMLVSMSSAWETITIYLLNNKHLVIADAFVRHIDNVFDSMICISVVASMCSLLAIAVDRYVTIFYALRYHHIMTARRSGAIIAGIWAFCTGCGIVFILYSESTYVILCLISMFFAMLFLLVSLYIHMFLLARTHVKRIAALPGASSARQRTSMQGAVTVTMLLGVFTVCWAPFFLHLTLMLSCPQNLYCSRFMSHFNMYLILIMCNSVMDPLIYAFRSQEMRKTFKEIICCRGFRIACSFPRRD
# Outline: as §1
# [2] = target: T10, Human melanin-concentrating hormone (MCH1) (Homo sapiens, UniProt Q99705); test: Radioligand binding, human melanin-concentrating hormone MCH1 membranes, FlashPlate, [125I]-S36057; conditions: compound at 10 μM; [125I]-S36057
# T10 construct: purchased Perkin Elmer Biosignal
# T10 sequence (Q99705 whole entry): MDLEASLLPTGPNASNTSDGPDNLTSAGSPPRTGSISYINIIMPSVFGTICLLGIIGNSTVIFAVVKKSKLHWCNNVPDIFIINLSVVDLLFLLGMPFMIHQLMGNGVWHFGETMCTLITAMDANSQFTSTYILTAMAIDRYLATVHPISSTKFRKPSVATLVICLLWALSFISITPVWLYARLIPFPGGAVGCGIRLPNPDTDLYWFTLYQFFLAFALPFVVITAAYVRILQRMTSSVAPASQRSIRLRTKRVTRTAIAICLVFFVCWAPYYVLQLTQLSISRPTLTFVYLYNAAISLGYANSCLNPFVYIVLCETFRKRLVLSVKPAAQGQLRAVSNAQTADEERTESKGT
# Outline: as §1
# Mouse urotensin (mUR2) = target: T11, Mouse urotensin (mUR2) (Mus musculus, UniProt Q8VIH9); test: Radioligand binding, mouse urotensin mUR2 membranes, FlashPlate, [125I]-Urotensin II; conditions: compound at 10 μM; [125I]-Urotensin II
# T11 construct: purchased Perkin Elmer Biosignal
# T11 sequence (Q8VIH9 1-385): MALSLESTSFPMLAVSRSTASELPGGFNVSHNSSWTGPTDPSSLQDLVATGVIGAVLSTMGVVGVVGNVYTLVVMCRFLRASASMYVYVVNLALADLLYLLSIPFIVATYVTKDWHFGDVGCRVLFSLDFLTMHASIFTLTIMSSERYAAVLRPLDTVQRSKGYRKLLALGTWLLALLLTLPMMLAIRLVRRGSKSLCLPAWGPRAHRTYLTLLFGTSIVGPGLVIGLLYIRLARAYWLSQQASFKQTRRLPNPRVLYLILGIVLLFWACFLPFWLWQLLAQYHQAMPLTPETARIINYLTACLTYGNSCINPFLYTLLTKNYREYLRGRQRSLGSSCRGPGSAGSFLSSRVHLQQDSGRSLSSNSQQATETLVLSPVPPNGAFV
# Outline: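 Cloned mouse urotensin (mUR2) receptor membranes from Perkin Elmer Biosignal were immobilized in FlashPlate microplates using a proprietary coating. Each well got 19.5 μl buffer, then 0.5 μl of DMSO, reference ligand, or compound. Adding 5 μl of [125I]-Urotensin II, diluted to 5× final concentration in binding buffer, started binding. Plates were sealed with TopSeal-A and incubated 1 hour at room temperature in the dark. Wells were counted for 30 seconds each on a TopCount after a 60-second delay, and percentage inhibition was calculated.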
# T1 sequence (P41143 whole entry): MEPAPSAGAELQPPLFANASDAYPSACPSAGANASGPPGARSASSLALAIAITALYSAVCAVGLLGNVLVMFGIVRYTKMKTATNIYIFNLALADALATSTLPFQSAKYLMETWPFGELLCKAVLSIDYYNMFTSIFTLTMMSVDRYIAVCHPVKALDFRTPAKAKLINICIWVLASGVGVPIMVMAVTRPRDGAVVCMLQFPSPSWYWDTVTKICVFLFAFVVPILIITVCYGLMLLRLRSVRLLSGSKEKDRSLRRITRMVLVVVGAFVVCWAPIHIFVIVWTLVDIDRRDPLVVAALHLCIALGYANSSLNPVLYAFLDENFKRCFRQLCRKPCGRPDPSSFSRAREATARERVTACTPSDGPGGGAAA
SMILES,"A1: inhibition of radioligand binding, human δ-opioid (DOP) (Human δ-opioid (DOP))","A8: inhibition of radioligand binding, human neurokinin (NK1) (Human neurokinin (NK1))","A7: inhibition of radioligand binding, human μ-opioid (MOP) (Human μ-opioid (MOP))","A4: inhibition of radioligand binding, human melanocortin (MC4) (Human Melanocortin (MC4))","A9: inhibition of radioligand binding, human neuropeptide Y (NPY-Y1) [1]","A10: inhibition of radioligand binding, human opioid (ORL1) (Human opioid (ORL1))","A2: inhibition of radioligand binding, human κ-opioid (KOP) (Human κ-Opioid (KOP))","A3: inhibition of radioligand binding, human melanocortin (MC3) (Human Melanocortin (MC3))","A5: inhibition of radioligand binding, human melanocortin (MC5) (Human melanocortin (MC5))","A6: inhibition of radioligand binding, human melanin-concentrating hormone (MCH1) [2]","A11: inhibition of radioligand binding, mouse urotensin (mUR2) (Mouse urotensin (mUR2))"
CSC1O[C@H](COCc2ccc(-c3ccccc3)cc2)[C@@H](O)[C@@H](OCc2ccc(-c3ccccc3)cc2)[C@H]1NC(=O)CCCN (stereo partly shown) [compound 294],− (“−” indicates less than 50% inhibition at 10 μM),+ (“+” indicates greater than 50% inhibition at 10 μM),− (“−” indicates less than 50% inhibition at 10 μM),− (“−” indicates less than 50% inhibition at 10 μM),− (“−” indicates less than 50% inhibition at 10 μM),− (“−” indicates less than 50% inhibition at 10 μM),− (“−” indicates less than 50% inhibition at 10 μM),− (“−” indicates less than 50% inhibition at 10 μM),+ (“+” indicates greater than 50% inhibition at 10 μM),− (“−” indicates less than 50% inhibition at 10 μM),− (“−” indicates less than 50% inhibition at 10 μM)
CSC1O[C@H](COCc2ccc3ccccc3c2)[C@@H](O)[C@@H](OCc2ccc(-c3ccccc3)cc2)[C@H]1NC(=O)CN (stereo partly shown) [compound 295],− (“−” indicates less than 50% inhibition at 10 μM),+ (“+” indicates greater than 50% inhibition at 10 μM),− (“−” indicates less than 50% inhibition at 10 μM),− (“−” indicates less than 50% inhibition at 10 μM),− (“−” indicates less than 50% inhibition at 10 μM),− (“−” indicates less than 50% inhibition at 10 μM),− (“−” indicates less than 50% inhibition at 10 μM),− (“−” indicates less than 50% inhibition at 10 μM),− (“−” indicates less than 50% inhibition at 10 μM),− (“−” indicates less than 50% inhibition at 10 μM),− (“−” indicates less than 50% inhibition at 10 μM)
CSC1O[C@H](COCc2ccc3ccccc3c2)[C@@H](O)[C@@H](OCc2ccc(-c3ccccc3)cc2)[C@H]1NC(=O)CNC(=N)N (stereo partly shown) [compound 296],− (“−” indicates less than 50% inhibition at 10 μM),+ (“+” indicates greater than 50% inhibition at 10 μM),− (“−” indicates less than 50% inhibition at 10 μM),− (“−” indicates less than 50% inhibition at 10 μM),− (“−” indicates less than 50% inhibition at 10 μM),− (“−” indicates less than 50% inhibition at 10 μM),− (“−” indicates less than 50% inhibition at 10 μM),− (“−” indicates less than 50% inhibition at 10 μM),− (“−” indicates less than 50% inhibition at 10 μM),− (“−” indicates less than 50% inhibition at 10 μM),− (“−” indicates less than 50% inhibition at 10 μM)
CSC1O[C@H](COCc2ccc3ccccc3c2)[C@@H](O)[C@@H](OCc2ccc(-c3ccccc3)cc2)[C@H]1NC(=O)CCN (stereo partly shown) [compound 297],− (“−” indicates less than 50% inhibition at 10 μM),+ (“+” indicates greater than 50% inhibition at 10 μM),− (“−” indicates less than 50% inhibition at 10 μM),− (“−” indicates less than 50% inhibition at 10 μM),− (“−” indicates less than 50% inhibition at 10 μM),− (“−” indicates less than 50% inhibition at 10 μM),− (“−” indicates less than 50% inhibition at 10 μM),− (“−” indicates less than 50% inhibition at 10 μM),− (“−” indicates less than 50% inhibition at 10 μM),− (“−” indicates less than 50% inhibition at 10 μM),− (“−” indicates less than 50% inhibition at 10 μM)
CSC1O[C@H](COCc2ccc3ccccc3c2)[C@@H](O)[C@@H](OCc2ccc(-c3ccccc3)cc2)[C@H]1NC(=O)CCNC(=N)N (stereo partly shown) [compound 298],− (“−” indicates less than 50% inhibition at 10 μM),+ (“+” indicates greater than 50% inhibition at 10 μM),− (“−” indicates less than 50% inhibition at 10 μM),− (“−” indicates less than 50% inhibition at 10 μM),− (“−” indicates less than 50% inhibition at 10 μM),− (“−” indicates less than 50% inhibition at 10 μM),− (“−” indicates less than 50% inhibition at 10 μM),− (“−” indicates less than 50% inhibition at 10 μM),+ (“+” indicates greater than 50% inhibition at 10 μM),− (“−” indicates less than 50% inhibition at 10 μM),− (“−” indicates less than 50% inhibition at 10 μM)
